Assay results as given in US6432956B1, “Method for treatment of sleep apneas” (priority 1990, dated 2002).

Tests used:
[1] = test system: patients suffering from obstructive sleep apnea; assay: Clinical experience: single dose of buspirone at bedtime in patients with obstructive sleep apnea; assay type: in vivo, human (patients)
Description: The effectiveness of azapirone treatment of patients suffering from sleep apneas can be exemplified by clinical experience with buspirone. […] One of the most consistent physiological measurements of improvement was a 10 to 20% increase in blood oxygen levels, an indication of improved respiratory efficiency.

[2] = test system: respiration in normal male volunteers; conditions: Rapoport, et al. 1988; cited from earlier work
respiration in cats = conditions: Garner, et al. 1989; cited from earlier work
[3] = single dose at bedtime, patients suffering from obstructive sleep apnea

O=C1CC2(CCCC2)CC(=O)N1CCCCN1CCN(c2ncccn2)CC1 [buspirone]
effectiveness in treating sleep apneas ([1]; patients suffering from sleep apneas): effective
episodes of sleep disturbance [1, 3]: marked reduction in episodes of sleep disturbance
sleep efficiency [1, 3]: increased sleep efficiency
total sleep time [1, 3]: gain in total sleep time
effect on respiration [2]: stimulatory effect on respiration
effect on respiration (respiration in cats): stimulatory effect on respiration
